Measured values from patent publication US5141925A, “Vivo methods for treating coccidiosis” (Trustees of Tufts College, priority 1990, dated 1992).

B1: Fetuin (protein, UniProt P12763 19-359, looked up)
Alpha-2-HS-glycoprotein: IPLDPVAGYKEPACDDPDTEQAALAAVDYINKHLPRGYKHTLNQIDSVKVWPRRPTGEVYDIEIDTLETTCHVLDPTPLANCSVRQQTQHAVEGDCDIHVLKQDGQFSVLFTKCDSSPDSAEDVRKLCPDCPLLAPLNDSRVVHAVEVALATFNAESNGSYLQLVEISRAQFVPLPVSVSVEFAVAATDCIAKEVVDPTKCNLLAEKQYGFCKGSVIQKALGGEDVRVTCTLFQTQPVIPQPQPDGAEAEAPSAVPDAAGPTPSAAGPPVASVVVGPSVVAVPLPLHRAHYDLRHTFSGVASVESSSGEAFHVGKTPIVGQPSIPGGPVRLCPGRIRYFKI
notes: glycoprotein

Key:
E. acervulina lectin = test: Hemagglutination inhibition assay, lectin of E. acervulina sporozoite lysate (rabbit erythrocytes); format: biochemical, Eimeria acervulina; details: minimum concentration inhibiting 4 hemagglutination units of lectin; 2% rabbit erythrocytes, room temperature, 60 minutes
Description: (§1) The lectin activity is preferably determined by a hemagglutination assay of rabbit erythrocytes. It is desirably performed in "U" well microtiter plates using lysates prepared from the parasites of interest. The sporozoites of the parasite of interest are washed three times in phosphate buffered saline (PBS), and adjusted to a concentration of 1×10^7 /ml. They are lysed by sonication in "Branson" sonicator; cleared of particulate material by filtration; and assayed for lectin activity using a conventionally known hemagglutination assay. In this assay, 2% rabbit erythrocytes in PBS are added to serial doubling dilutions of the prepared test lysate in PBS containing 2 mg/ml of bovine serum albumin (BSA) and incubated at 23° C. (i.e., room temperature) for 1 hour. Lectin titer is defined as the reciprocal of the highest agglutinating dilution as determined by direct observation, which is defined as one agglutinating unit.
(§2) Sugar specificity and characterization is determined by a standard hemagglutination inhibition assay. 2% rabbit erythrocytes are added to serial doubling dilutions of the sugar-comprising test compound in PBS containing 2 mg/ml BSA and 4 hemagglutination units of lectins; followed by incubation at room temperature for 60 minutes. The minimum inhibitory concentration of the test compound is defined as the minimum concentration which is required for inhibiting 4 hemagglutination units of lectins. The following represent examples of suitable test compounds: (1) glycoproteins such as fetuine, bovine submaxillary mucin, hog gastric mucin, and -1- acid glycoprotein; (2) monosaccharides such as arabinose, fucose, glucose, galactose, mannose, N-acetylglucosamine, and N-acetylgalactosamine and their derivatives; and (3) oligosaccharides including chitobiose and chitotetrose.

E. tenella lectin = test: Hemagglutination inhibition assay, lectin of E. tenella sporozoite lysate (rabbit erythrocytes); format: biochemical, Eimeria tenella; details: minimum concentration inhibiting 4 hemagglutination units of lectin; 2% rabbit erythrocytes, room temperature, 60 minutes
Description: as §1, §2

[1] = test system: embryonic chick kidney cells; test: 3H uracil counts of host cells with fetuin, no parasite; format: cell-based; details: Host Cells + 15 mg/ml Fetuin, mean of eight cultures
Experimental: (§3) The sporozoites are then pretreated for one hour in cell culture nutrient (Waymouth's MAB 87/3, without serum) containing various concentration of inhibiting sugars, such as 0.1, 1.0, and 10.0 mg/ml fetuine, before being inoculated onto 24-48 hour primary cultures of embryonic chick kidney cells prepared in 24 or 96 well plates. Treatment with the inhibiting sugar, such as fetuine, is continuous at the tested concentration during the incubation period, allowing the parasite development to proceed for 48 or 96 hours. Nutrient is changed every 48 hours. Because parasites developing in cell culture, but not the host cells, take up ^3 H uracil, add 2 u Ci to each well in a 96 well plate 18 to 24 hours beore counting by liquid scintillation. Nutrient is removed from the parasitized cell cultures which are then treated with PBS solution, pH 7.6-7.8, containing 0.5% trypsin and 0.022% EDTA to detach the cells from the culture vessel, and harvested with a PHD Cell Harvester (Cambridge Instrument) onto glass fiber filter discs. Individual discs are placed into scintillation vials with 3.5 ml Toluene (plus 5.262 grams per 4 liters of PPO [2,5-diphenyloxazole]) and samples are then counted in a Beckman scintillation counter.

E. tenella = test: Inhibition of E. tenella development in cell culture (3H uracil uptake, Schmatz et al.); format: cell-based, Eimeria tenella; details: for Scintillation Counts (24 hr), Trial 1 / Scintillation Counts (24 hr), Trial 2: 96 hours development, mean of eight cultures
Experimental: A series of experimental assays were performed to measure the in vitro inhibition of Coccidia infections by compositions comprising at least one sugar. The inhibition assay is one developed by Schmatz et al. [J. Protozology 33:109-114 (1986)] in which inhibition of sporozoite development is correlated with a decrease in ^3 H uracil uptake by the host cells.
Sporozoites are excysted aseptically from sterile coccidis oocysts, cleaned of debris by passage through a cellulose or glass wool column, counted, and diluted to a concentration of approximately 2.5×10^5 sporozoites per ml.
as §3

E. maxima lectin = test: Hemagglutination inhibition assay, lectin of E. maxima sporozoite lysate (rabbit erythrocytes); format: biochemical, Eimeria maxima; details: minimum concentration inhibiting 4 hemagglutination units of lectin; 2% rabbit erythrocytes, room temperature, 60 minutes
Description: as §1
Sugar specificity and characterization is determined by a standard hemagglutination inhibition assay. 2% rabbit erythrocytes are added to serial doubling dilutions of the sugar-comprising test compound in PBS containing 2 mg/ml BSA and 4 hemagglutination units of lectins; followed by incubation at room temperature for 60 minutes. […]

[2] = Host Cells + Parasite + 5 mg/ml Fetuin
[3] = Host Cells + Parasite + 10 mg/ml Fetuin
[4] = Host Cells + Parasite + 15 mg/ml Fetuin

Row | Molecule | Lowest Concentration that Inhibited Lectin Agglutination, E. acervulina (E. acervulina lectin) [mg/mL] | Lowest Concentration that Inhibited Lectin Agglutination, E. tenella (E. tenella lectin) [mg/mL] | other results
1 | O=C[C@@H](O)[C@H](O)[C@H](O)CO [Arabinose] | 25.0 |  | 
2 | Chitobiose |  | 1.25 | 
3 | CC(=O)N[C@H]1[C@H](O[C@H]2[C@H](O)[C@@H](NC(C)=O)C(O)O[C@@H]2CO)O[C@H](CO)[C@@H](O[C@@H]2O[C@H](CO)[C@@H](O[C@@H]3O[C@H](CO)[C@@H](O)[C@H](O)[C@H]3NC(C)=O)[C@H](O)[C@H]2NC(C)=O)[C@@H]1O (stereo partly drawn) [Chitotetrose] |  | 0.03 | 
4 | Hog Gastric Mucin | 0.5 | 0.125 | 
5 | C[C@@H]1OC(O)[C@@H](O)[C@H](O)[C@@H]1O (single isomer, unassigned) [L(-)-Fucose] |  | 1.25 | 
6 | Acid Glycoprotein | 0.5 | 1.25 | 
7 | O=[N+]([O-])c1ccc(OC2O[C@H](CO)[C@@H](O)[C@H](O)[C@H]2O)cc1 (stereo partly drawn) [P-Nitro-o-D-Glucoside] |  | 12.5 | 
8 | COC1O[C@H](CO)[C@@H](O)[C@H](O)[C@H]1O (stereo partly drawn) [1-o-CH3 -D-Glucoside] |  | 4.1 | 
9 | Bovine Submaxillary Mucin [Bovine Submaxillary Mucin (BSM)] | 0.03 | 0.083 | 
10 | B1 | 0.13 | 0.078 | Scintillation Counts (24 hr), Trial 1 [1]: 7,826.4; Scintillation Counts (24 hr), Trial 2 [1]: 1,942.7; Scintillation Counts (24 hr), Trial 1 (E. tenella; [2]): 8,135.0; Scintillation Counts (24 hr), Trial 2 (E. tenella; [2]): 1,394.7; Scintillation Counts (24 hr), Trial 1 (E. tenella; [3]): 8,625.6; Scintillation Counts (24 hr), Trial 2 (E. tenella; [3]): 1,556.4; Scintillation Counts (24 hr), Trial 1 (E. tenella; [4]): 4,328.3; Scintillation Counts (24 hr), Trial 2 (E. tenella; [4]): 796.1; 3H uracil uptake, inhibition of E. tennella development (in words) (E. tenella; summary of Table E2): substantial reductions; Lowest Concentration that Inhibited Lectin Agglutination, E. maxima (E. maxima lectin): 0.4 mg/mL
